Values of other authors, collected in patent publication US20070232685A1, “CRYSTALLINE FORMS OF N-(BENZO[B]THIEN-3-YLMETHYL)-SULFAMIDE” (priority 2006, published 2007).

Tested on: carbonic anhydrase
Conditions: background statement on a known anticonvulsant; no method given

For `CC1(C)O[C@@H]2[C@@H](CO[C@@]3(COS(N)(=O)=O)OC(C)(C)O[C@@H]23)O1` [Topiramate], the carbonic anhydrase inhibition is listed as “single digit micromolar”.
